Ends that are not written are not given here.
Tests used:
PAI-1 = target: T1, PAI-1 (Homo sapiens, UniProt P05121); assay: Kinetics of peptide annealing: residual PAI inhibitory activity assayed with β-trypsin and S-2222; format: biochemical; conditions: for k / kobs / t1/2 of PAI-1 inactivation: 25° C.
T1 construct: made in house; host or cells: E. coli (vector pET3a)

fibrin clot = assay: In vitro clot lysis assay, fluorescein-labeled fibrin clots with recombinant PAI-1; format: biochemical, human
Description: Clot lysis assays were performed as previously described (Fay et al., 1994). A mixture of glu-plasminogen (0.2 μM), fluorescein-labeled fibrinogen (3 μM), PAI-1 (0.7 μM) was prepared. t-PA (20 nM) was added 30 minutes after clot formation and clot lysis was allowed to occur for 60 minutes at 37° C., after which the tubes were centrifuged (16,000×3 min), and 80 μL of the supernatant was removed and diluted into 1.2 mL of 10 mM Tris-HCl, 140 mM NaCl, pH 7.5. The fluorescence of this dilution was measured and % clot lysis was calculated, as previously described (Fay et al., 1994). The capacity of P1-P14 peptide to accelerate fibrinolysis in vitro, both in the absence and presence of platelets was also evaluated. Fluorescein-labeled fibrin clots were formed in the presence of recombinant PAI-1 (0.7 μM) and either P1-P14 peptide (55 μM), an irrelevant 14 amino acid peptide (55 μM), or no peptide. After 30 min at 37° C., fibrinolysis was initiated by the addition of t-PA (20 nM), and % clot lysis was determined 60 min later. Addition of P1-P14 peptide increased clot lysis from 28±7% to 90±6% (mean±SEM of triplicate experiments), whereas the control peptide had no effect on clot lysis either in the presence or absence of PAI-1 (FIG. 6a). In similar experiments, platelet-rich clots were formed by clotting fluorescein-labeled fibrinogen in the presence of 2.5×10^8 platelets/mL, and fibrinolysis was initiated by the addition of t-PA (75 pM).

T1 sequence (P05121 24-402): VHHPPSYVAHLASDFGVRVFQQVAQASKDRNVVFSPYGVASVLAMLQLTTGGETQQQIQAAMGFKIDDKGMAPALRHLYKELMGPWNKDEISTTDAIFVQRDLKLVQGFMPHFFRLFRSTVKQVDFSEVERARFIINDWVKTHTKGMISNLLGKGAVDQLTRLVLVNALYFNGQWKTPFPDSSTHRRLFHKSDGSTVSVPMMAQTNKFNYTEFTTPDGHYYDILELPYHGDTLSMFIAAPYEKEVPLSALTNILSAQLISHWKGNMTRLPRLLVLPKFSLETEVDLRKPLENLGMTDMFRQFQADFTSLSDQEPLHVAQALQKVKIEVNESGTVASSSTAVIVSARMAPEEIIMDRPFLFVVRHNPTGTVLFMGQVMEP

## Ac-TVASSSTAVIVSAR [SEQ ID NO: 1, Thr-Val-Ala-Ser-Ser-Ser-Thr-Ala-Val-Ile-Val-Ser-Ala-Arg]
PAI-1; 0.9 μM PAI, 64 μM peptide
  half-life of PAI inactivation: 4.3 min
PAI-1; peptide 1.5 mM
  k: .022 M⁻¹ s⁻¹
  kobs: .12 h⁻¹
  t1/2 of PAI-1 inactivation: 5.8 h
PAI-1; peptide 3.5 mM
  k: .020 M⁻¹ s⁻¹
  kobs: .25 h⁻¹
  t1/2 of PAI-1 inactivation: 2.7 h
PAI-1; peptide 5.5 mM
  kobs: .28 h⁻¹
  t1/2 of PAI-1 inactivation: 2.5 h
PAI-1; peptide 7 mM
  k: .012 M⁻¹ s⁻¹
  kobs: .31 h⁻¹
  t1/2 of PAI-1 inactivation: 2.2 h
PAI-1; peptide 9 mM
  k: .017 M⁻¹ s⁻¹
  kobs: .54 h⁻¹
  t1/2 of PAI-1 inactivation: 1.3 h
Fibrin clot
  dependence of the degree of clot lysis on peptide concentration: proportional
  inhibition of PAI-1 function in the presence of fibrin: nearly completely inhibited
Fibrin clot; absence of PAI-1
  effect on clot lysis in the absence of PAI-1: no augmentation of fibrinolysis
Fibrin clot; presence of PAI-1 (0.7 μM), peptide 55 μM, t-PA 20 nM, 28±7% without peptide
  clot lysis at 60 minutes: 90±6%

— patent US5639726A, “Peptide mediated enhancement of thrombolysis methods and compositions” (The Regents of the University of Michigan, priority 1994, dated 1997)
